Laboratory results as given in patent publication US8748569B2, “Peptide amphiphiles and methods to electrostatically control bioactivity of the ikvav peptide epitope” (Northwestern University, priority 2011, dated 2014).
Peptide text beside a SMILES is read from it. * marks the point of attachment. Palmitoyl = CCCCCCCCCCCCCCCC(=O)*

How the values were obtained:
[1] = system: P19 embryonal carcinoma cells differentiated into neurons; test: Neurite outgrowth of neurons cultured in peptide amphiphile gels; format: cell-based, murine; conditions: compared to gels of PA 1; for promotion of neurite outgrowth (in words): gels containing 0.2 wt % of the PA with 0.8 wt % PA 1
Method: P19 embryonal carcinoma cells were cultured in media composed of α-MEM (Gibco), 7.5% newborn calf serum (Lonza), 2.5% fetal bovine serum (Gibco), penicillin (100 units/ml) and streptomycin (100 ug/ml) (Invitrogen). Neuronal differentiation was induced by plating P19 cells in non-treated Petri dishes in media containing 5 uM retinoic acid (Sigma) for 4 days. Neurospheres were collected from the Petri dish and allowed to settle in a centrifuge tube for 10 minutes. Media was removed, then trypsin/EDTA solution was added and the tube was gently agitated for 5 minutes. Cells were dissociated by triturating the neurospheres, then media was added to inactivate the trypsin. Cells were centrifuged and the pellet resuspended in media to a concentration of 25,000 cells/ul. Cells were mixed (1:4) with PA solution. The PA/cell solution was pipetted into coverslip-bottom culture dishes (MatTek) and covered with gelling solution (150 mM NaCl, 3 mM KCl, 25 mM CaCl2) for 1 minute to induce gelation, then rinsed with a 150 mM NaCl, 3 mM KCl solution, then media was added to the dish. Cells were cultured for 2 days.
In order to assay neurite outgrowth, gels were rinsed with PBS, then fixed in 4% paraformaldehyde for 30 minutes at room temperature. Gels were rinsed 3× with PBS followed by addition of 10% normal goat serum blocking solution (Invitrogen) with 0.1% Triton X-100 added. Gels were incubated overnight with primary antibody (rabbit anti-β-III-tubulin IgG, 1/2000, Covance) in blocking solution. Gels were rinsed 3× with PBS, then blocked for 30 minutes with blocking solution. Next, gels were incubated with secondary antibody (Alexa Fluor 488 goat anti-rabbit IgG, 1/100, Invitrogen) in blocking solution for 1 hour. After one PBS rinse, nuclei were stained with a 5 ug/ml solution of Hoecsht 34580 (Invitrogen) in PBS for 15 minutes, then rinsed 4 times. Gels were imaged on a Zeiss LSM 510 META laser scanning confocal microscope, individually acquiring z-stacks of randomly chosen cells with neurites. Two gels were imaged per condition for each experiment. Experiments were done in triplicate. For each condition, at least 50 neurons with neurites were imaged. Using the Simple Neurite Tracer plug-in for ImageJ software, neurites were traced and measured. A one-way ANOVA, followed by paired t-tests, were performed to determine significance between conditions. Researchers were blinded to the conditions during imaging and tracing.
Pluripotent murine P19 embryonal carcinoma cells were differentiated into neurons. These neurons were then homogeneously distributed into isotonic salt solutions composed of 0.8 wt % PA 1 mixed with 0.2 wt % 2-5 and gelled with 25 mM CaCl2 (FIG. 3a,b). Mixtures of 1 with 2-5 were used in biological experiments in order to form robust gel matrices capable of supporting cells in culture. After two days of culture, the cells were fixed and the neurites and nuclei were fluorescently labelled green and blue using β-III-tubulin immunostaining and Hoechst staining, respectively, then imaged by confocal microscopy (FIG. 14). Neurites were traced and measured, and average neurite lengths were calculated (FIG. 15).

[2] = Small-angle X-ray scattering (SAXS) of PA nanostructures; format: physicochemical; conditions: (Core) Shell Cylinder SAXS model; for Total SAXS Cross-section dimensions: diameter
Text: Small-angle X-ray scattering (SAXS) measurements were obtained using a Rigaku S-MAX 3000 High Brilliance SAXS System. Cu Ka radiation was generated by Osmic MicroMaxs, an integrated microfocus sealed tube generator (powered at 45 kV and 0.9 mA) with Osmict Confocal Max-Fluxs optics, 3 pinholes collimation. A 20×20 cm^2 2D position-sensitive wire detector (1024×1024 pixels) was positioned 150 cm behind the examined samples, resulting in a q-range of 0.07-2.8 nm^−1. The wave vector defined as, q=(4π/λ)sin(2θ/2), where 2y is the scattering angle and λ is wavelength of Cu Kα radiation (1.542 Å). A total of 10^6 or more counts were collected in order to obtain a high signal to noise ratio. Samples were measured for 3600 s, and then background subtracted from data collected using a capillary containing the isotonic salt solution. The 2D SAXS patterns were azimuthally averaged and the background subtracted using standard methods. Data analysis was based on fitting the scattering curve to an appropriate model by a least-squares method using software provided by NIST (NIST SANS analysis version 7.0 on IGOR) ^21 The table below lists the models used to fit the SAXS curves. The Total SAXS cross-sectional dimensions correspond to length and width for molecule 2, and diameter for 3-5.

[3] = Solubility in physiologically relevant monovalent salt solution; format: physicochemical; conditions: monovalent salt solution composed of 150 mM NaCl and 3 mM KCl
Circular dichroism (CD) = format: physicochemical; conditions: 1 wt % in 150 mM NaCl, 3 mM KCl
Method: CD was done using a model J-715 Jasco Circular Dichroism Spectrometer. 1 wt % PA solutions were prepared in either a 150 mM NaCl, 3 mM KCl solution or a 150 mM NaCl, 3 mM KCl, and 5 mM CaCl2 solution, both at a pH of 7.2-7.4, as determined via pH paper. The solutions were then heated to 80° C. in a water bath for 1 hr, and then slowly cooled to room temperature over the course of 8 hr. The samples were measured through 0.01 mm quartz plates. Each trace represents the average of three scans. The mean residue ellipticity was corrected for purity of the lyophilized powder from peptide content analysis.

[4] = Transmission electron microscopy (cryoTEM / conventional TEM) of PA nanostructures; format: physicochemical; conditions: for fiber diameter in trimer ribbons: cryoTEM / TEM, fibers aggregated side-by-side; for OBSERVED FIBER DIAMETER: from TEM; for ASSEMBLED MORPHOLOGY: observed morphologies from TEM; for average diameter of cylindrical fibers: cryoTEM, 150 mM NaCl, 3 mM KCl, pH 7.4
Method: The nanostructure of each PA molecule under physiologically relevant conditions was investigated using electron microscopy. Samples for vitreous ice cryo-transmission electron microscopy (cryoTEM) were prepared from a 0.1-0.5 wt % PA solution dissolved in 150 mM NaCl, 3 mM KCl, or in a 150 mM NaCl, 3 mM KCl, and 5 mM CaCl2 solution, both at a pH of 7.2-7.4. The solutions were then heated to 80° C. in a water bath for 1 hr, and then slowly cooled to room temperature over the course of 8 hr. 10 μL of each solution was pipetted onto a plasma cleaned holey carbon TEM grid (Electron Microscopy Sciences), blotted and plunged into liquid ethane using a FEI Vitrobot Mark IV. Samples were kept at −180° C. and imaged using a JEOL 1230 TEM operating at 100 kV.
Samples for conventional TEM microscopy were prepared from 0.1 wt % PA solution dissolved in ultrapure water and adjusted to a pH of 7.2-7.4 by adding NaOH. The solutions were then heated to 80° C. in a water bath for 1 hr, and then slowly cooled to room temperature over the course of 8 hr, unless noted otherwise. 2 μL of a 0.1 wt % PA solution was pipetted onto a Carbon Formvar grid (Electron Microscopy Sciences) and allowed to dry. The samples were then negatively stained by pipetting 2 uL of a 2 wt % Uranyl acetate solution and allowed to dry. Each sample was imaged using a JEOL 1230 TEM operating at 100 kV. The average diameter of nanofibers was obtained via measuring 40-100 different fibers from solutions and grids prepared throughout multiple days.
The assembly of each PA molecule under physiologically relevant conditions was examined using cryogenic electron microscopy (cryoTEM), as described in Example 4. PAs were dissolved in isotonic salt solutions resembling extracellular fluid (150 mM NaCl, 3 mM KCl, pH 7.4). […] In order to compare molecular simulation diameters with those observed from TEM, molecular simulation values for the other four PA molecules were scaled by the same amount, 87%.

## CCCCCCCCCCCCCCCC(=O)N[C@H](C(=O)N[C@H](C(=O)N[C@@H](C)C(=O)N[C@@H](C)C(=O)N[C@@H](CCC(=O)O)C(=O)N[C@@H](CCC(=O)O)C(=O)N[C@@H](CCC(=O)O)C(=O)NCC(=O)N[C@H](C(=O)N[C@@H](CCCCN)C(=O)N[C@H](C(=O)N[C@@H](C)C(=O)N[C@H](C(=O)O)C(C)C)C(C)C)[C@@H](C)CC)C(C)C)C(C)C [PA 3, CH3(CH2)14C(O)-VVAAEEEGIKVAV-OH] (Palmitoyl-VVAAEEEGIKVAV-OH)
[1]
  promotion of neurite outgrowth (in words): promoted neurite outgrowth
[1]; listed as SEQ ID NO. 5
  promotion of neurite outgrowth (in words): promote neurite outgrowth
[1]; gels of 0.8 wt % PA 1 mixed with 0.2 wt % of the PA, gelled with 25 mM CaCl2, 2 days culture
  increase in neurite outgrowth: 42±13%
[2]
  Core Diameter: 1.2 nm
  Shell Thickness: 3.8 ± 0.6 nm
  Total SAXS Cross-section dimensions: 7.6 ± 1.2 nm
[3]
  solubility: soluble
Circular dichroism (CD)
  peptide secondary structure from CD spectrum: beta-sheet like CD signatures
[4]
  fiber diameter in trimer ribbons: 7.1±1 nm
[4]; cryoTEM and conventional TEM
  diameter of cylindrical assemblies: 12.8±1.3 nm
[4]; Cylindrical morphology
  OBSERVED FIBER DIAMETER: 128 ± 14 Å
  ASSEMBLED MORPHOLOGY: Cylindrical
[4]; Trimer ribbon morphology
  OBSERVED FIBER DIAMETER: 71 ± 5 Å
  ASSEMBLED MORPHOLOGY: Trimer ribbon

## CH3(CH2)14C(O)-VVAAEE-NH2 (Palmitoyl-VVAAEE-NH2) [PA 1]
[4]
  average diameter of cylindrical fibers: 6.7±0.9 nm
  OBSERVED FIBER DIAMETER: 66 ± 9 Å
  ASSEMBLED MORPHOLOGY: Cylindrical fiber
[4]; listed as PA compound 1
  average diameter of cylindrical fibers: 6.7 nm

## CH3(CH2)14C(O)-VVAAEEEGGIKVAV-OH (Palmitoyl-VVAAEEEGGIKVAV-OH; SMILES CCCCCCCCCCCCCCCC(=O)N[C@H](C(=O)N[C@H](C(=O)N[C@@H](C)C(=O)N[C@@H](C)C(=O)N[C@@H](CCC(=O)O)C(=O)N[C@@H](CCC(=O)O)C(=O)N[C@@H](CCC(=O)O)C(=O)NCC(=O)NCC(=O)N[C@H](C(=O)N[C@@H](CCCCN)C(=O)N[C@H](C(=O)N[C@@H](C)C(=O)N[C@H](C(=O)O)C(C)C)C(C)C)[C@@H](C)CC)C(C)C)C(C)C) [PA 4]
[1]
  promotion of neurite outgrowth (in words): did not show any biological activity with respect to neurite outgrowth
[1]; listed as 4
  promotion of neurite outgrowth (in words): did not
[2]
  Core Diameter: .93 nm
  Shell Thickness: 2.63 ± 1.1 nm
  Total SAXS Cross-section dimensions: 7.1 ± 2.2 nm
[4]; cryoTEM and conventional TEM
  fiber diameter in bundled dimers: 8.1±1.0 nm
  fiber diameter in triple helices: 7.7±0.9 nm
[4]; Dimer Bundle morphology
  OBSERVED FIBER DIAMETER: 77 ± 9 Å
  ASSEMBLED MORPHOLOGY: Dimer Bundle
[4]; Triple helix morphology
  OBSERVED FIBER DIAMETER: 81 ± 10 Å
  ASSEMBLED MORPHOLOGY: Triple helix

## CH3(CH2)14C(O)-VVAAEEGIKVAV-OH (Palmitoyl-VVAAEEGIKVAV-OH; SMILES CCCCCCCCCCCCCCCC(=O)N[C@H](C(=O)N[C@H](C(=O)N[C@@H](C)C(=O)N[C@@H](C)C(=O)N[C@@H](CCC(=O)O)C(=O)N[C@@H](CCC(=O)O)C(=O)NCC(=O)N[C@H](C(=O)N[C@@H](CCCCN)C(=O)N[C@H](C(=O)N[C@@H](C)C(=O)N[C@H](C(=O)O)C(C)C)C(C)C)[C@@H](C)CC)C(C)C)C(C)C) [PA 2]
[1]
  promotion of neurite outgrowth (in words): no enhancement of neurite outgrowth
[1]; listed as 2
  promotion of neurite outgrowth (in words): did not
Circular dichroism (CD)
  peptide secondary structure from CD spectrum: beta-sheet like CD signatures
[4]
  fiber diameter in trimer ribbons: 6.0±0.5 nm
  OBSERVED FIBER DIAMETER: 60 ± 5 Å
  ASSEMBLED MORPHOLOGY: Trimer ribbon
